In the OPERA property sets (Mansouri et al. 2018):

For `Cc1cnc2ccccc2n1`, the boiling point was 244 °C and the melting point was 180 °C. For `O=C(CC(=O)c1ccccc1)c1ccccc1`, the melting point was 70.5 °C and the ready biodegradability was “readily biodegradable”. With `COCC(C)OC(C)=O` (centres undefined) the boiling point was 146 °C, the log10 Koc (L/kg) was 0.36 and the log10 vapour pressure (mmHg) was 0.593. With `C1CCC2NC2C1` (centres undefined) the boiling point was 150 °C and the melting point was 21 °C. Work on `CNC[C@H](O)[C@@H](O)[C@H](O)[C@H](O)CO` yielded a melting point of 128 °C. In the case of `O[C@@H]1[C@H]2CC[C@H](C2)[C@@H]1O`, the melting point was 139 °C. For `CCCCc1c(C)nc(NCC)nc1O`, the log10 vapour pressure (mmHg) was -5.7 and the melting point was 160 °C. `COC(=O)Nc1ccc(Cl)c(Cl)c1` showed a log10 Koc (L/kg) of 2.74. Work on `CC(=O)CC(=O)O` yielded a melting point of 36.5 °C. With `CC(C)c1cccc(O)c1O` the melting point was 47 °C. With `COc1ccccc1C(=O)O` the log10 vapour pressure (mmHg) was -4.8, the melting point was 101 °C and the ready biodegradability was “readily biodegradable”. Work on `FC(F)(F)C(F)(F)C(F)(F)I` yielded a boiling point of 41.2 °C and a melting point of -95 °C. For `CC1(C)C=CC=C(C(=O)O)C=C1`, the melting point was 88.5 °C. In the case of `O=[N+]([O-])c1ccc(Oc2ccc(Cl)cc2Cl)cc1`, the log10 Koc (L/kg) was 4, the melting point was 70 °C and the ready biodegradability was “not readily biodegradable”. Compound `CC(C)=CCC1=C(O)C(C(=O)CC(C)C)=C(O)C(CC=C(C)C)(CC=C(C)C)C1=O` has a melting point of 93 °C. `Cc1cccc2ccoc12` showed a boiling point of 190 °C and a melting point of 109 °C. Compound `Cl.NCCc1ccc(O)cc1` has a melting point of 272 °C. With `CC=NNc1ccc([N+](=O)[O-])cc1[N+](=O)[O-]` the melting point was 166 °C. `CC(c1ccccc1)c1ccccc1` showed a boiling point of 273 °C, a log10 vapour pressure (mmHg) of -1.85 and a melting point of -17.9 °C. With `C[C@]1(O)CC[C@H]2[C@@H]3CCC4=CC(=O)CC[C@]4(C)[C@@]3(F)[C@@H](O)C[C@@]21C` the melting point was 270 °C. Work on `CN(C)CCCN1c2ccccc2Sc2ccc(Cl)cc21.Cl` yielded a melting point of 195 °C. With `O=S(=O)(O)CCCNC1CCCCC1` the melting point was 302 °C. Compound `OC[C@@H]1CCCN2CCCC[C@H]12` has a boiling point of 270 °C and a melting point of 70 °C. `CCC` showed a boiling point of -42.1 °C, a log10 Koa of 0.97 and a log10 vapour pressure (mmHg) of 3.85. The melting point was -188 °C and the ready biodegradability was “readily biodegradable”. In the case of `Ic1ccc(I)c(I)c1I`, the melting point was 136 °C. With `CCCCCC(CO)CCC` (centres undefined) the boiling point was 218 °C. `CCN(CC)C(=O)c1cccnc1` gave a boiling point of 298 °C and a melting point of 25 °C. With `Nc1cccc(I)c1` the melting point was 33 °C. In the case of `C[C@H](O)CCc1ccccc1`, the boiling point was 239 °C. With `OCCCc1ccccc1` the boiling point was 235 °C, the log10 Henry constant (atm·m³/mol) was -6.69 and the log10 vapour pressure (mmHg) was -1.7. For `CNC(=O)Nc1ccccc1`, the log10 Koc (L/kg) was 1.29. Compound `O=C(O)c1ccc2c(c1)CCCC2` has a melting point of 156 °C. In the case of `CC(C)(C)OOC(=O)c1ccccc1`, the melting point was 8 °C and the ready biodegradability was “not readily biodegradable”. In the case of `CCCCCC1OC1CC1OC1CCCCCCCC(=O)OCC(COC(=O)CCCCCCCC1OC1CC1OC1CCCCC)OC(=O)CCCCCCCC1OC1CC1OC1CCCCC` (centres undefined), the ready biodegradability was “readily biodegradable”. Work on `CCCCB(CCCC)CCCC` yielded a boiling point of 209 °C. `CCC(c1ccc(O)cc1)c1ccc(O)cc1` gave a melting point of 132 °C. For `N#C/C(=N\OCC1OCCO1)c1ccccc1`, the log10 vapour pressure (mmHg) was -5.4 and the melting point was 77.7 °C. In the case of `CC(C)=CCC/C(C)=C/CO`, the boiling point was 228 °C, the log10 vapour pressure (mmHg) was -1.52 and the ready biodegradability was “readily biodegradable”. Compound `CC1(C)[C@@H](O)CC[C@]2(C)[C@H]3C(=O)C=C4[C@@H]5C[C@@](C)(C(=O)O)CC[C@]5(C)CC[C@@]4(C)[C@]3(C)CC[C@@H]12` has a melting point of 296 °C. `CCCC1CCCCC1` showed a boiling point of 157 °C, a log10 vapour pressure (mmHg) of 0.622 and a melting point of -94.9 °C. With `CC(=O)Nc1ccc2c(c1)Cc1cc(F)ccc1-2` the ready biodegradability was “not readily biodegradable”. In the case of `CC(=O)N(C)c1ccccc1`, the boiling point was 256 °C, the melting point was 103 °C and the ready biodegradability was “not readily biodegradable”. `CN(C)c1cccc2c(S(N)(=O)=O)cccc12` gave a melting point of 220 °C. With `CC(=O)OO` the boiling point was 110 °C, the log10 Henry constant (atm·m³/mol) was -5.67 and the log10 vapour pressure (mmHg) was 1.16. The melting point was -0.2 °C. With `CCc1ccc2ccccc2n1` the boiling point was 246 °C. Work on `c1ccc2occc2c1` yielded a boiling point of 174 °C and a log10 vapour pressure (mmHg) of -0.356. In the case of `CCNCCN(C)C`, the boiling point was 134 °C. In the case of `CCOC(=O)[C@@H](N)CS.Cl`, the melting point was 124 °C. With `O=Cc1c(O)ccc2ccccc12` the melting point was 83 °C and the ready biodegradability was “readily biodegradable”. In the case of `CC(C)CC(C)C(C)C` (centres undefined), the boiling point was 131 °C, the log10 biodegradation half-life (days) was 0.903 and the log10 vapour pressure (mmHg) was 1.07. The melting point was -128 °C. `CC(=O)OCC(=O)[C@@]1(O)[C@@H](C)C[C@H]2[C@@H]3CCC4=CC(=O)C=C[C@]4(C)[C@@]3(F)[C@@H](O)C[C@@]21C` showed a melting point of 248 °C. Compound `CC[C@@H]1C(=O)OC[C@@H]1Cc1cncn1C.Cl` has a melting point of 204 °C. Compound `Clc1cc(Cl)c(-c2c(Cl)cccc2Cl)c(Cl)c1` has a melting point of 85 °C. For `N=C(N)NC(=N)N`, the melting point was 136 °C. For `CCCCCCCCCCCCCCCCCCC1CO1` (centres undefined), the ready biodegradability was “readily biodegradable”. For `C=CC(=O)OCCN(CC)CC`, the melting point was -60 °C. `CN1CCN(CCCN2c3ccccc3Sc3ccc(Cl)cc32)CC1` showed a melting point of 228 °C. `FC(F)(Br)C(F)(F)C(F)(F)C(F)(F)Br` showed a boiling point of 97 °C. `CC(C)OC(=O)OOC(=O)OC(C)C` showed a melting point of 10 °C. With `CCOS(=O)OCC` the boiling point was 158 °C. Compound `Cc1ccc(CN)cc1` has a boiling point of 195 °C and a melting point of 12.5 °C. `COCCC#N` showed a boiling point of 163 °C. `Cc1ccc(C)c(O)c1C` showed a boiling point of 226 °C, a log10 vapour pressure (mmHg) of -1.46 and a melting point of 58 °C. The ready biodegradability was “not readily biodegradable”. `CC=Cc1ccc(OC)c(OC)c1` showed a boiling point of 270 °C and a melting point of 18 °C. `CCC#CCCC` gave a boiling point of 107 °C and a melting point of -130 °C.
